Patent publication US20200172530A1, “Small Molecule Sensitization of BAX Activation for Induction of Cell Death” (Dana-Farber Cancer Institute, Inc., priority 2017, published 2020)

Tests used:
[1] = Dynamic light scattering; type: physicochemical; conditions: 20 mM potassium phosphate buffer, pH 6.2
Method: Samples were measured at room temperature on a DynaPro-99 instrument with a 90° detector angle using a 10 second acquisition time per measurement. Compounds were diluted from a 100 mM stock in 20 mM potassium phosphate buffer, pH 6.2 with 1% DMSO final concentration.

[2] = NMR-based detection of small molecule aggregators; type: physicochemical; conditions: 20 mM potassium phosphate buffer, pH 6.2, 10% D2O
Method: To detect line broadening, standard ^1H-NMR spectra were acquired. T2 decay curves were generated by measuring the CPMG NMR spectra of the molecules, performed as described above. The number of echo cycles corresponds to the decay time. The intensity of the aromatic peaks at the indicated decay times were measured and normalized to a maximum intensity of 1 at the 10 ms decay time. The curves were fitted to a one phase decay model using Prism software (Graphpad). Excitation sculpting was used for solvent suppression. Samples for both analyses were prepared in 20 mM potassium phosphate buffer, pH 6.2, 10% (v/v) D2O. Results of these measurements are described in FIGS. 12-13.

[3] = molecular target: T1, recombinant, full length BAX (Homo sapiens, UniProt Q07812); assay: Fluorescence polarization assay (direct and competitive); type: binding; conditions: FITC-peptide 25 nM, BAX 250 nM
T1 construct: made in house; host or cells: E. coli BL21 (DE3)
Method: FITC-peptide (25 nM) was incubated with a serial dilution of recombinant, full length BAX in binding buffer (20 mM Potassium phosphate, pH 6.2). For competitive FP, FITC-peptide (25 nM) was mixed with a fixed concentration of BAX (250 nM) and incubated with a serial dilution of acetylated peptide or a compound described herein. Fluorescence polarization was measured at equilibrium using a SpectraMax M5 microplate reader. Nonlinear regression analysis of dose-response curves was performed using Prism software 7 (GraphPad).

[4] = molecular target: T2, BAX (Homo sapiens, UniProt Q07812); assay: Liposomal release assay (ANTS/DPX); type: biochemical
T2 construct: Recombinant, full-length BAX was expressed in BL21 (DE3) E. coli using the pTYB1 vector; made in house; host or cells: E. coli BL21 (DE3)
T2 sequence (Q07812 whole entry): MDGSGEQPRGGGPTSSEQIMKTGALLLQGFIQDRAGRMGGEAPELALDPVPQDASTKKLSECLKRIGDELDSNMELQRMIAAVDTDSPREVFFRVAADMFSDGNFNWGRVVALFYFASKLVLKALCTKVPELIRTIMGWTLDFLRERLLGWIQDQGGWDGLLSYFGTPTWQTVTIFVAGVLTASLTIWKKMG
Method: Briefly, a lipid mixture containing a 48:28:10:10:4 molar ratio of phosphatidylcholine, phosphatidylethanolamine, phosphatidylinositol, dioleoyl phosphatidylserine, and tetraoleolyl cardiolipin (Avanti Polar Lipids) was generated in chloroform. Lipid films were formed by evaporation of solvent, initially under nitrogen gas and then by overnight vacuum, followed by storage at −80° C. under nitrogen. […] Liposomes were formed by 5 freeze/thaw cycles followed by extrusion through a 100 nm polycarbonate membrane and purified using a Sepharose CL-2B size exclusion column. […] ANTS/DPX release was monitored over time at room temperature in a spectrofluorometer (Tecan Infinite M1000) using an excitation wavelength of 355 nm, an emission wavelength of 540 nm, and a bandwidth of 20 nm. Maximal release was determined by the addition of Triton X-100 to a final concentration of 0.2% (v/v). Percent release was calculated according to Equation 1 shown below, where F is the observed release, and F0 and F100 are baseline and maximal fluorescence, respectively.
First, baseline fluorescence with liposomes and compound alone was read, followed by the addition of BAX to evaluate for direct activation; then, BIM SAHBA2 was added to this mixture and the effect of the combination monitored, and compared with the triggering activity of BIM SAHBA2 and BAX in the absence of compound.

T1 sequence (Q07812 whole entry): as above

| line broadening in 1H-NMR spectrum (aggregation) [2] | competition with FITC-BIM SAHBA2 for BAX interaction [3] | maximal BAX-mediated liposomal release ([4]; BIM SAHBA2 alone with BAX) [%] | Molecule | light scattering (aggregation in solution) [1] | T2 decay (aggregation) [2] | direct BAX activation in liposomal release ([4]; single agent with BAX) |
| --- | --- | --- | --- | --- | --- | --- |
| – | – | – | Nc1ccc(Nc2ccccc2)cc1 [4-ADPA] | dose-dependent increase in light scattering | rapid T2 decay | – |
| does not exhibit line broadening | – | – | Oc1ccc(Oc2ccccc2)cc1 [BIF-44] | does not aggregate in solution | does not exhibit rapid or dose dependent decrease in T2 decay | – |
| – | – | – | O=C1C(I)=CC(=C(c2cc(I)c(O)c(I)c2)c2ccccc2C(=O)O)C=C1I [I4PTH] | dose-dependent increase in light scattering | – | – |
| – | dose-responsively competed | 50 | BIM SAHBA2: stapled BIM BH3 helix (aa 145-164), Ac-EIWIAQELRXIGDXFNAYYA-CONH2, X=stapling amino acid; direct BAX activator positive control | – | – | induced time-responsive liposomal release |
